# Measured values as given in US8232426B2, “Aminoethylaromatic compounds suitable for treating disorders that respond to modulation of the dopamine D3 receptor” (Abbott GmbH & Co. KG, priority 2004, dated 2012).
# Structures can show the parent of a compound that is named as a salt. Where two headings read alike, the source gives them in different places.
# Assays:
# [1] = target: T1, human dopamine D3 receptors (Homo sapiens, UniProt P35462); assay: Dopamine D3 receptor binding ([125I]-iodosulpride displacement)
# T1 construct: expressed in transfected cells; host or cells: HEK-293
# T1 sequence (P35462 whole entry): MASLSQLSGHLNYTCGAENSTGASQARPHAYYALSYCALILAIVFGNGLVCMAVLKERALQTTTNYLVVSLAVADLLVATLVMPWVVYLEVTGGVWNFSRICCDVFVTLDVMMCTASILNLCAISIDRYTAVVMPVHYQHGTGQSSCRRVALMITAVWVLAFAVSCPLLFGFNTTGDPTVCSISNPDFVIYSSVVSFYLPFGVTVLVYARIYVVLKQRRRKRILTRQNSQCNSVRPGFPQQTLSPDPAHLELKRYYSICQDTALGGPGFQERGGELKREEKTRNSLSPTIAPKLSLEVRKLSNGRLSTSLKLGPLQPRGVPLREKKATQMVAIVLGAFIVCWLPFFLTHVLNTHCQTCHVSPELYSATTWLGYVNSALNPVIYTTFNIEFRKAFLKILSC
# Procedure: (§1) Each assay mixture was run in triplicate. • The incubation buffer contained 50 mM tris, 120 mM NaCl, 5 mM KCl, 2 mM CaCl2, 2 mM MgCl2 and 0.1% bovine serum albumin, 10 μM quinolone and 0.1% ascorbic acid (prepared fresh daily). […] Each assay mixture was run in triplicate. • The incubation buffer contained 50 mM tris, 120 mM NaCl, 5 mM KCl, 2 mM CaCl2, 2 mM MgCl2 and 0.1% bovine serum albumin. The buffer was adjusted to pH 7.4 with HCl. • Measurement and Analysis: • After having been incubated at 25° C. for 60 minutes, the assay mixtures were filtered through a Whatman GF/B glass fiber filter under vacuum using a cell collecting device. The filters were transferred to scintillation viols using a filter transfer system. After 4 ml of Ultima Gold® (Packard) have been added, the samples were shaken for one hour and the radioactivity was then counted in a Beta-Counter (Packard, Tricarb 2000 or 2200CA).
# [2] = target: T2, human dopamine D2L receptors (long isoform) (Homo sapiens, UniProt P14416); assay: Dopamine D2L receptor binding ([125I] iodospiperone displacement); conditions: selectivity ratio of receptor binding constants, D2L versus D3, HEK-293 membranes
# T2 construct: expressed in transfected cells; host or cells: HEK-293
# T2 sequence (P14416 whole entry, canonical isoform): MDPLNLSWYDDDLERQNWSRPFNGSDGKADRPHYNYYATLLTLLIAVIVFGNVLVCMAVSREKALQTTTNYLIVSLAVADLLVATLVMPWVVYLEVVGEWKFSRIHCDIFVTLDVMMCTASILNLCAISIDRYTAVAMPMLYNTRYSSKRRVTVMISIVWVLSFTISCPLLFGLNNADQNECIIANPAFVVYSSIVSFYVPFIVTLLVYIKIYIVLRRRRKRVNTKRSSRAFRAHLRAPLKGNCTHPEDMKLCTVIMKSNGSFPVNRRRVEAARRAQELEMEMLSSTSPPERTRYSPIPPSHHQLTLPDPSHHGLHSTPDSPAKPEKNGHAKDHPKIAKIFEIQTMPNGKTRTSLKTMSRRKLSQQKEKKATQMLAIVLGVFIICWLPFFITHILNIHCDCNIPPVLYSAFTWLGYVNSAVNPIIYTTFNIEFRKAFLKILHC
# Procedure: as §1
# [3] = membranes of HEK-293 cells stably expressing human D3 receptor, 0.1 nM [125I]-iodosulpride, 25° C., 60 minutes, read-out: Ki(D3)*
"Ki [1, 3] [µM]",SMILES,Ki(D2)*/Ki(D3)* [2],Ki [1] [µM]
0.042,"CCCNCCc1ccc(NS(=O)(=O)c2ccc(C(C)C)cc2)cn1 [Example 10, 4-Isopropyl-N-[6-(2-propylamino-ethyl)-pyridin-3-yl]-benzenesulfonamide×2HCl]",53,–
0.064,"C=CCN(CC=C)CCc1ccc(NS(=O)(=O)c2ccc(OC(F)(F)F)cc2)cc1 [Example 20, N-[4-(2-Diallylamino-ethyl)-phenyl]-4-trifluoromethoxy-benzenesulfonamide×HCl]",65,–
0.0002,"CCCN(CCC)CCc1ccc(NS(=O)(=O)c2ccc(C(C)C)cc2)cc1 [Example 8, N-[4-(2-Dipropylamino-ethyl)-phenyl]-4-isopropyl-benzenesulfonamide×HCl]",54,–
–,"CCCN[C@H](C)Cc1ccc(NS(=O)(=O)c2ccc(OC(F)(F)F)cc2)cc1 [Example 2, N-[4-((R)-2-Propylamino-propyl)-phenyl]-4-trifluoromethoxy-benzenesulfonamide]",57,0.021
0.002,"CCCN(CCC)CCc1ccc(N(C)S(=O)(=O)c2ccc(C(C)C)cc2)cc1 [Example 9, N-[4-(2-Dipropylamino-ethyl)-phenyl]-4-isopropyl-N-methyl-benzenesulfonamide×HCl]",40,–
0.018,"CC(C)c1ccc(S(=O)(=O)Nc2ccc(CCNCC3CC3)cc2)cc1 [Example 7, N-{4-[2-(Cyclopropylmethyl-amino)-ethyl]-phenyl}-4-isopropyl-benzenesulfonamide×HCl]",23,–
0.0005,"CCCN(CCC)CCc1ccc(CS(=O)(=O)c2ccc(C(C)C)cc2)cc1 [Example 25, Dipropyl-{2-[4-(4-isopropyl-benzenesulfonylmethyl)-phenyl]-ethyl}-amine×HCl]",175,–
–,"C=CCNCCc1cccc(NS(=O)(=O)c2ccc(C(C)C)cc2)c1 [Example 21, N-[3-(2-Allylamino-ethyl)-phenyl]-4-isopropyl-benzenesulfonamide, reference compound]",62,0.022
0.00058,"CCCN1CCCC1Cc1ccc(NS(=O)(=O)c2ccc(C(C)C)cc2)cc1 (centres unmarked) [Example 11, 4-Isopropyl-N-[4-(1-propyl-pyrrolidin-2-ylmethyl)-phenyl]-benzenesulfonamide]",16,–
–,"CCCN(CCC)CCc1ccc(CS(=O)(=O)c2ccc(OC(F)(F)F)cc2)cc1 [Example 26, Dipropyl-{2-[4-(4-trifluoromethoxy-benzenesulfonylmethyl)-phenyl]-ethyl}-dipropyl-amine×HCl]",170,0.0039
0.0027,"C=CCN(CC=C)CCc1ccc(NS(=O)(=O)c2ccc(C(C)C)cc2)cc1 [Example 19, N-[4-(2-Diallylamino-ethyl)-phenyl]-4-isopropyl-benzenesulfonamide×HCl]",42,–
–,"C=CCN(CC=C)CCc1ccc(CS(=O)(=O)c2ccc(C(C)C)cc2)cc1 [Example 23, Diallyl-{2-[4-(4-isopropyl-benzenesulfonylmethyl)-phenyl]-ethyl}-amine×HCl]",59,0.0084
0.034,"C=CCNCCc1ccc(N(C)S(=O)(=O)c2ccc(OC(F)(F)F)cc2)cc1 [Example 17, N-[4-(2-Allylamino-ethyl)-phenyl]-N-methyl-4-trifluoromethoxy-benzenesulfonamide×HCl]",75,–
–,"CCCN[C@@H](C)Cc1ccc(NS(=O)(=O)c2ccc(OC(F)(F)F)cc2)cc1 [Example 1, N-[4-((S)-2-Propylamino-propyl)-phenyl]-4-trifluoromethoxy-benzenesulfonamide]",41,0.043
0.0048,"CCCNCCc1ccc(CS(=O)(=O)c2ccc(C(C)C)cc2)cc1.Cl [Example 28, {2-[4-(4-Isopropyl-benzenesulfonylmethyl)-phenyl]-ethyl}-propyl-amine×HCl]",130,–

SMILES,"Ki [1, 3] [µM]",Ki(D2)*/Ki(D3)* [2],Ki [1] [µM]
"C=CCNCCc1ccc(N(CCC)S(=O)(=O)c2ccc(OC(F)(F)F)cc2)cc1.Cl [Example 18, N-[4-(2-Allylamino-ethyl)-phenyl]-N-propyl-4-trifluoromethoxy-benzenesulfonamide×HCl]",0.037,24,–
"CCCNCCc1ccc(NS(=O)(=O)c2ccc(C(C)C)cc2)cc1.Cl [Example 6, 4-Isopropyl-N-[4-(2-propylamino-ethyl)-phenyl]-benzenesulfonamide×HCl]",0.0022,22,–
"CCCNC(C)Cc1ccc(NS(=O)(=O)c2ccc(C(C)C)cc2)cc1.Cl (centres unmarked) [Example 3, 4-Isopropyl-N-[4-(2-propylamino-propyl)-phenyl]-benzenesulfonamide×HCl]",0.0028,33,–
"C=CCNCCc1ccc(NS(=O)(=O)c2ccc(OC(F)(F)F)cc2)cc1.Cl [Example 16, N-[4-(2-Allylamino-ethyl)-phenyl]-4-trifluoromethoxy-benzenesulfonamide×HCl]",0.031,79,–
"C=CCNCCc1ccc(N(C)S(=O)(=O)c2ccc(C(C)C)cc2)cc1.Cl [Example 14, N-[4-(2-Allylamino-ethyl)-phenyl]-4-isopropyl-N-methyl-benzenesulfonamide×HCl]",0.027,40,–
"C=CCNCCc1ccc(N(CCC)S(=O)(=O)c2ccc(C(C)C)cc2)cc1.Cl [Example 15, N-[4-(2-Allylamino-ethyl)-phenyl]-4-isopropyl-N-propyl-benzenesulfonamide×HCl]",0.022,22,–
"C=CCNCCc1ccc(NS(=O)(=O)c2ccc(C(C)C)cc2)cc1.Cl [Example 13, N-[4-(2-Allylamino-ethyl)-phenyl]-4-isopropyl-benzenesulfonamide×HCl]",0.0017,74,–
